Source: US8592408B2, “Fused aminodihydrothiazine derivatives” (Eisai R&D Management Co., Ltd., priority 2011, dated 2013)
Where two headings read alike, the source gives them in different places. Blank lines part the entries; values can stand above or below the molecule they belong to.

Key:
[1] = test system: Aβ peptide production in rat primary neuronal culture; assay: Quantification of Aβ peptide in culture of neurons from rat fetus brain (Aβ ELISA); type: cell-based; conditions: Primary cortical neuron, Aβ species (ABx-40 1 day / ABx-42 3 days) not given
[2] = Effects on QTc interval in anaesthetised guinea pigs; type: in vivo; conditions: anaesthetised guinea pig, i.v. infusion 2.0, 6.0, 20 mg/kg/10 min, up to the highest dose/concentration tested
Experimental: Assessment of Effects on QTc Interval in Guinea Pigs
Male Dunkin-Hartley guinea pigs were weighed and anaesthetised using 4% isoflurane in carbogen. […] Xylazine at 2 mg/kg i.m. was administered into the hind limb as a bradycardic agent to enable detection of QTc prolongation by the software.
The carotid artery and jugular vein were cannulated with lines containing heparinised saline and a 3-lead ECG connected and monitored using LabChart Pro software. Animals were allowed to stabilise for 30 minutes after the completion of the surgical procedure, before the initiation of an i.v. vehicle (5% DMSO/90% MilliQ/5% 0.1N HCl) infusion from time zero (infusion rate=0.2 ml/kg/min). At 10 mins, an arterial blood sample was collected for PK analysis (150u1; all collection syringes were heparinised). At 12 mins, drug infusion was started @ 2.0 mg/kg/10 min i.v. The dose was increased to 6.0 mg/kg/10 min, then 20 mg/kg/10 min i.v., with a 10 minutes infusion period and two minutes blood sampling at each dose. After the final dose, a blood sample was taken and a second vehicle infusion initiated. Eight minutes later a terminal blood sample was collected for plasma PK analysis and the animal killed by a Schedule 1 method.
QTc (Bazett's) changes were analysed using LabChart Pro software.

[3] = molecular target: T1, P-glycoprotein (MDR1-MDCK cells) (Homo sapiens, UniProt P08183); assay: MDR1-MDCK permeability (bi-directional) Pgp efflux assay; type: in vitro ADME; conditions: MDR1-MDCK, pH 7.4/pH 7.4, 10 μM, 60 min; ER=Papp(B-A)/Papp(A-B)
T1 construct: assay run at Cyprotex Discovery Ltd; host or cells: MDCK (canine kidney epithelial) cells stably transfected with MDR1
T1 sequence (P08183 whole entry): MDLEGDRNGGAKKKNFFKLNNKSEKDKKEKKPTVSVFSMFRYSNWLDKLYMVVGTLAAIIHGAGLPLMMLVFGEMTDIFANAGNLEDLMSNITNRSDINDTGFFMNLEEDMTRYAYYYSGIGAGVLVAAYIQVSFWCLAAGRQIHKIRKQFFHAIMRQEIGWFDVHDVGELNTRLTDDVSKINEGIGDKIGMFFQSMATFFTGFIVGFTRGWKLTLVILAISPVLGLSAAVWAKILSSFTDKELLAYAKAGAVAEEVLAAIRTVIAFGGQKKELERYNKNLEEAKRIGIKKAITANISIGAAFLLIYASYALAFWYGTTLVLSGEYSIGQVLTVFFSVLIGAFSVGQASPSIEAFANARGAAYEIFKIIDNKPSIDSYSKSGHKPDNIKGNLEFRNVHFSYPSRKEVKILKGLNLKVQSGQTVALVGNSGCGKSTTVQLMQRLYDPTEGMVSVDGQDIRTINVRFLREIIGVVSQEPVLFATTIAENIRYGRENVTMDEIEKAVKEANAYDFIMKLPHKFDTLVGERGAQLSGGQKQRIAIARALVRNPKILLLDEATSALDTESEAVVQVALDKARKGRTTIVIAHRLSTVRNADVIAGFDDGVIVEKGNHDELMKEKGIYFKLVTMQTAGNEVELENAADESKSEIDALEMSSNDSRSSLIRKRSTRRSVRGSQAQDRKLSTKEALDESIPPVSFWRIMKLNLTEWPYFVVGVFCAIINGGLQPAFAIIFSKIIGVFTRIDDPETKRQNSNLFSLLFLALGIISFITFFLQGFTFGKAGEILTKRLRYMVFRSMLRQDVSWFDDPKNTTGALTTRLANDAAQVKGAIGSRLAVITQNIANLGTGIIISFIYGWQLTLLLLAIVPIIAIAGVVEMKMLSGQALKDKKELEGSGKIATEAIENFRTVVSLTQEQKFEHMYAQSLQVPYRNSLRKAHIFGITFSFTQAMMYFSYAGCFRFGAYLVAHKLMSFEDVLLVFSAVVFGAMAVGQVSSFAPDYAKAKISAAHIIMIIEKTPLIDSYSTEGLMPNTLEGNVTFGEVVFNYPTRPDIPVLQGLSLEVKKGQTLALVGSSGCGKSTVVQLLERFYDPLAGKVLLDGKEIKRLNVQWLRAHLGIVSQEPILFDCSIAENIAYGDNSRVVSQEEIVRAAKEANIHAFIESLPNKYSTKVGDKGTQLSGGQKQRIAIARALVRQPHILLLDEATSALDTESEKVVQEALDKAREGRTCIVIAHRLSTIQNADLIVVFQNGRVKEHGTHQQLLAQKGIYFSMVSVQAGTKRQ
Experimental: (§1) Test compound permeability was assessed in duplicate.
(§2) Test and control compounds were quantified by LC-MS/MS cassette analysis using a 5-point calibration with appropriate dilution of the samples. Cyprotex generic analytical conditions were used. The starting concentration (C0) was determined from the dosing solution and the experimental recovery calculated from C0 and both apical and basolateral compartment concentrations.
(§3) Lucifer yellow permeation is low if monolayers have not been damaged.
(§4) Where dQ/dt is the rate of permeation of the drug across the cells, C0 is the donor compartment concentration at time zero and A is the area of the cell monolayer.

[4] = Effects on QTc interval in anaesthetised beagle dogs; type: in vivo; conditions: anaesthetised beagle dog, infusion 1, 3, 10 mg/kg/10 min, up to the highest dose/concentration tested
Experimental: Assessment of Effects on QTc Interval in Beagle Dogs
Male beagle dogs were weighed and injected with sodium thiopental for induction of anesthesia.
The carotid artery and saphenous vein were cannulated with lines containing heparinised saline and a LII ECG connected and monitored using polygraph system. Animals were allowed to stabilise for 30 minutes before the infusion of compound solution and the infusion via cannula was started from time zero with 1 mg/kg/10 min. The dose was increased to 3 mg/kg/10 min, then 10 mg/kg/10 min. An arterial blood sample was collected after every dosing for PK analysis.

[5] = Plasma protein binding (PPB), rapid equilibrium dialysis; type: in vitro ADME; conditions: male, Sprague Dawley, rat, RED 6 h 37° C.
Experimental: (§5) Method For Determination of Plasma Protein Binding (PPB) and Brain Tissue Binding (BTB)
(§6) On the morning of dialysis, control male Sprague Dawley rat plasma and brain, previously stored at −80° C. were thawed at room temperature. Plasma was checked for pH and if necessary adjusted to 7.4 with 1M HCl. Plasma was then centrifuged (2000 g for 10 min) and the brains diluted with 2 mL of Phosphate Buffered Saline (pH 7.4) per gram of tissue and homogenised using a mechanical homogeniser.
(§7) The Rapid Equilibrium Dialysis (RED) plate (Thermo Scientific) was prepared in accordance with the manufacturers guidelines i.e. the base plate was soaked in 20% (v/v) ethanol for 10 min and then rinsed twice with deionised water before being allowed to dry. […] The plate was then covered with an adhesive and incubated in air at 37° C. for 6 h with 130 rpm agitation.
(§8) Following the 6 h incubation, the seal was removed and an aliquot (50 μL) taken from the PBS chambers and dispensed into Micronics tubes. […]
(§9) Samples were vortex mixed and an aliquot (300 μL) of acetonitrile containing 0.1% formic acid and 100 ng/mL of an appropriate internal standard added. Samples were then mixed and centrifuged (2000 g for 15 min) and an aliquot of the supernatant (100 μL) removed into a 96-deep well plate and diluted with an equal volume of water ready for analysis by LC-MS/MS.

[6] = Rat in vivo CNS penetration (plasma, brain and CSF concentrations); conditions: 10 mg/kg p.o.; for Kp at 2 h / Kp at 4 h / Kp at 6 h / Kp at 8 h: male, Sprague Dawley, po, rat
Experimental: Rat In Vivo CNS Penetration
Male Sprague Dawley rats were acquired from Charles River UK Ltd. (Margate, UK) and housed according to UK Home Office guidelines. Drugs were made up to the appropriate concentrations in 0.5% methyl cellulose. Animals were dosed orally (2 mL/kg) by gavage at the doses outlined in Tables 2 to 4 below.
At the time points post-dosing, specified in Tables 2 to 4 below the animals were administered an i.p. injection of sodium pentobarbitone (approximately 330 mg/kg for terminal anaesthesia).
Using a guillotine, the animals were decapitated and trunk blood collected into 15 ml Falcon tubes containing 100 IU heparin. Blood was vortexed followed by centrifugation at 6000 rpm, 4° C. for 5 minutes. Plasma was collected for DMPK and ELISA assays and stored at −80° C. until use. Brains were dissected out and divided along the midline, weighed and stored at −80° C. until further use.
Method for Analysis of Plasma, Brain and CSF Samples
Test compound was prepared as a 1 mg free base/mL solution in DMSO, vortexed and sonicated for 5 min. The 1 mg/mL DMSO solution was diluted to 10 and 30 μg/mL acetonitrile stocks, by adding 10 μL to 990 μL acetonitrile and 30 μL to 970 μL acetonitrile, respectively. The 10 and 30 μg/mL acetonitrile stocks were then serially diluted 1:9 (v/v) (100 μL stock into 900 μL acetonitrile) to give the following solutions: 0.003, 0.01, 0.03, 0.1, 0.3, 1, 3, 10 and 30 μg/mL acetonitrile.
Control male Sprague Dawley rat plasma and the study plasma samples were stored at −80° C. until the day of analysis when they were thawed at room temperature. Control plasma was centrifuged (2,000 g for 10 min) and aliquoted (90 μL) into eppendorf tubes for preparation of standards and blank samples. Study samples were previously aliquoted (100 μL) into eppendorf tubes immediately following collection of the plasma.
Double blank and blank samples were prepared by adding 10 μL of acetonitrile to 90 μL of blank plasma.
Control male Sprague Dawley rat brain and the study brain samples were weighed after collection and stored at −80° C. until the day of analysis when they were thawed at room temperature. Once thawed brains were diluted with water (4 mL per gram of tissue) and homogenised using a mechanical homogeniser. An aliquot (100 μL) of each study sample was taken into Micronics tubes ready for analysis and sufficient aliquots (90 μL) of control brain homogenate prepared for preparation of standards and blanks.
Double blank and blank samples were prepared by adding 10 μL of acetonitrile to 90 μL of blank brain homogenate.
Each plasma and brain homogenate sample, standard and blank (100 μL) was extracted with an aliquot (300 μL) of acetonitrile (containing 0.1% formic acid and 100 ng/mL of an appropriate internal standard). Double blanks were extracted with an aliquot (300 μL) of acetonitrile containing 0.1% formic acid). All samples, standards and blanks were then vortex mixed and centrifuged (2000 g for 15 min). An aliquot (50 μL) of the resulting supernatant was then taken into a 2 mL 96-deep well plate and diluted with acetonitrile:water (50:50 v/v) (150 μL) ready for analysis by a specific LC-MS/MS method.
Control male Sprague Dawley rat CSF and the study CSF samples were stored at −80° C. until the day of analysis when they were thawed at room temperature. An aliquot (50 μL) of each study sample was taken into Micronics tubes ready for analysis and sufficient aliquots (45 μL) of control CSF prepared for preparation of standards and blanks.
Double blank and blank samples were prepared by adding 5 μL of acetonitrile to 45 μL of blank CSF.
Each CSF sample, standard and blank (50 μL) was extracted with an aliquot (150 μL) of acetonitrile (containing 0.1% formic acid and 100 ng/mL of an appropriate internal standard). Double blanks were extracted with an aliquot (150 μL) of acetonitrile containing 0.1% formic acid.

[7] = Brain tissue binding (BTB), rapid equilibrium dialysis; type: in vitro ADME; conditions: rat brain homogenate, RED 6 h 37° C.
Experimental: as §5, §6, §7, §8, §9

[8] = TASTPM mice, cited from earlier work; for brain concentration: oral dose of 250 mg/kg
Aβ40 = conditions: TASTPM mice, cited from earlier work
BACE-1 = BACE-1 (Homo sapiens, UniProt P56817); conditions: cited from earlier work
Chain of BACE-1 (P56817 46-501, species assumed): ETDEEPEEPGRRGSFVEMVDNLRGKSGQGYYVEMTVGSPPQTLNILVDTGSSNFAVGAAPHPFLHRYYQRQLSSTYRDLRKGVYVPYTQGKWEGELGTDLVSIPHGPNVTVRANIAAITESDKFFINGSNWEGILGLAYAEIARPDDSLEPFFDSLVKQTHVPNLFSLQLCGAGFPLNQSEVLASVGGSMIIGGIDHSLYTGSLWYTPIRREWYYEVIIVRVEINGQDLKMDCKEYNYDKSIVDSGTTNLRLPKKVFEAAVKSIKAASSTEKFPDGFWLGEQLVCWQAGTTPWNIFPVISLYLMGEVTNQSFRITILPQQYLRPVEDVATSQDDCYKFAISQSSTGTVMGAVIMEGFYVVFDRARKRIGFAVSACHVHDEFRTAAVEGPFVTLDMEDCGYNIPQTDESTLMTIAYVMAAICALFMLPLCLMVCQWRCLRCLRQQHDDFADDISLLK

P-glycoprotein (MDR1) = molecular target: T2, P-glycoprotein (MDR1) (Homo sapiens, UniProt P08183); assay: MDR1-MDCK permeability (bi-directional) Pgp efflux assay; type: in vitro ADME; conditions: dog, MDCK-MDR1, pH 7.4; read-out: Pgp ER
T2 construct: assay run at Cyprotex Discovery Ltd; host or cells: MDCK (canine kidney epithelial) cells stably transfected with MDR1
T2 sequence (P08183 whole entry): as the sequence (P08183 whole entry) above
Experimental: as §1, §2, §3, §4

[9] = test system: Salmonella typhimurium tester strains TA98, TA100, TA1535 and TA1537 and Escherichia coli tester strain WP2 uv; assay: Ames test; type: cell-based; conditions: absence and presence of rat liver S9, up to highest dose tested 5000 ug/plate
Experimental: The title compound was subjected to an Ames test (Salmonella typhimurium tester strains TA98, TA100, TA1535 and TA1537 and Escherichia coli tester strain WP2 uv. Mutation Research 1975, 31, 347; Mutation Research 1976, 38, 3; Proc. Nat. Acad. Sci. USA 1976, 73, 950; Proc. Nat. Acad. Sci. USA 1975, 72, 5135) in the absence and presence of rat liver S9. The compound was negative up to the highest dose/concentration tested (5000 ug/plate).

[10] = CSF / plasma (unbound), read-out: CSF:Plu
[11] = brain (total) / plasma (total), read-out: Brtot:Pltot
[12] = brain (unbound) / plasma (unbound), read-out: Bru:Plu

IC50 [1]: 6 nM
Pgp ER [3]: 1.7
fraction unbound at 6 h, 1 μg/mL ([5]; pH 7.4, fraction unbound, rat plasma, mean of n = 3, read-out: Rat Plasma fu): 0.104
fraction unbound at 6 h, 1 μg/mL ([5]; pH 7.4, rat plasma, mean of n = 3, read-out: Rat PPB (%) (converted)): 0.104
Kp at 2 h [6, 10]: 0.5
Kp at 4 h [6, 10]: 0.6
Kp at 6 h [6, 10]: 0.5
Kp at 2 h [6, 11]: 3.3
Kp at 4 h [6, 11]: 3.9
Kp at 6 h [6, 11]: 3.7
Kp at 8 h ([6]; brain (total) / plasma (total), 8 h, read-out: Brtot:Pltot): 3.8
Kp at 2 h [6, 12]: 0.7
Kp at 4 h [6, 12]: 0.8
Kp at 6 h [6, 12]: 0.8
Kp at 8 h ([6]; brain (unbound) / plasma (unbound), 8 h, read-out: Bru:Plu): 0.8
[CSF] ([6]; rat CSF, 8 h): ^3n.q.
fraction unbound at 6 h, 1 μg/mL ([7]; male, Sprague Dawley, pH 7.4, fraction unbound, mean of n = 3, read-out: Rat Brain fu): 0.022
Rat BTB (%) ([7]; 1 μg/mL, mean of n = 3): 97.8%
SMILES: NC1=N[C@@]2(c3cc(NC(=O)c4cnc(CF)cn4)ccc3F)CO[C@H](C(F)(F)F)[C@H]2CS1 [Example 8, N-(3-((4aS,5S,7aS)-2-amino-5-(trifluoromethyl)-4a,5,7,7a-tetrahydro-4H-furo[3,4-d][1,3]thiazin-7a-yl)-4-fluorophenyl)-5-(fluoromethyl)pyrazine-2-carboxamide]
QTc (Bazett's) change [2]: unchanged
QTc change [4]: unchanged

SMILES: CCNc1cc(C(=O)N[C@@H](Cc2ccccc2)[C@H](O)CNCc2cccc(C(F)(F)F)c2)c(F)c(N2CCCCS2(=O)=O)c1 [GSK188909]
increase in CNS penetration by co-administration of a Pgp inhibitor ([8]; 250 mg/kg oral, with vs without GF120918): ~9 fold
brain concentration ([8]; Pgp inhibitor GF120918 dosed 5 hours before): 5.43 µM
brain concentration ([8]; no Pgp inhibitor): 0.62 µM
effect on brain Aβ40 levels (Aβ40; 250 mg/kg oral dose, absence of a Pgp inhibitor): did not have any effect
reduction in brain Aβ40 levels relative to vehicle treated mice (Aβ40; 250 mg/kg oral, Pgp inhibitor co-administered 5 hours prior): 68%
IC50 (BACE-1): 5 nM

IC50 [1]: 44 nM
efflux ratio at 60 min, 10 μM (P-glycoprotein (MDR1)): 1.7
SMILES: COCc1cnc(C(=O)Nc2ccc(F)c([C@]34CO[C@H](C(F)(F)F)[C@H]3CSC(N)=N4)c2)cn1 [Example 13, N-(3-((4aS,5S,7aS)-2-amino-5-(trifluoromethyl)-4a,5,7,7a-tetrahydro-4H-furo[3,4-d][1,3]thiazin-7a-yl)-4-fluorophenyl)-5-(methoxymethyl)pyrazine-2-carboxamide]

SMILES: NC1=N[C@@]2(c3cc(N)ccc3F)CO[C@H](C(F)(F)F)[C@H]2CS1 [1-(25), (4aS,5S,7aS)-7a-(5-amino-2-fluorophenyl)-5-(trifluoromethyl)-4a,5,7,7a-tetrahydro-4H-furo[3,4-d][1,3]thiazin-2-amine]
Ames test result [9]: negative
